The test system of assay [1] is Bacillus cereus ATCC 11778. In words: MIC test with asymmetrical compounds on B. cereus. In kind it is cell-based. On the procedure: (§1) Growth inhibition experiments were performed according to the following protocol: […] Microtiter plate wells were filled with 495 microliter of this suspension to which 5 microliter of selected compounds dissolved in DMSO was added (final concentration of each compound was 10 microgram per ml). This was all performed in an anaerobic cabinet. After filling the microtiter plate was sealed and incubated for 22 hours at 37° C. Inhibiting compounds were selected by visually determining growth inhibition. According to the same protocol as in Example 3 asymmetrical compounds were tested on their inhibitory effect of C. difficile, but also on other bacterial species, such as S. aureus and B. cereus. In the below tables the compounds and the MIC values that have been found for the various micro-organisms are listed. In the tests described in Table 4 and 5 the medium indicated as 'flora' is the SIEM medium described in […], Schols H A, Nauta A, Schoterman […]. High-throughput analysis of the impact of antibiotics on the human intestinal microbiota composition.

For assay [2], the system named is Staphylococcus aureus ATCC 6538. In words: MIC test with asymmetrical compounds on S. aureus. In kind it is cell-based. On the procedure: as §1
In assay [3] the test system is C. difficile ATCC 43599 spores. In words: MIC test with asymmetrical compounds on C. difficile spores. In kind it is cell-based, Clostridium difficile. As to conditions: Clostridioides difficile. Here is the method:
as §1

In assay [4] the test system is C. difficile ATCC 43599 vegetative cells. In words: MIC test with asymmetrical compounds on C. difficile vegetative cells. As to conditions: Clostridioides difficile. Type of assay: cell-based, Clostridium difficile. Here is the method: as §1
Setting [5] is: ATCC11778, Table 5, read-out: MIC B. cereus ATCC 11778.
Setting [6] is: ATCC6538, Table 5, read-out: MIC S. aureus ATCC 6538.
[7] abbreviates: ATCC43599, 22 h, Table 4, SAB model medium, tested concentrations 1.2 μg/ml-0.03 μg/ml if not indicated otherwise, read-out: MIC spores SAB model medium.
[8] abbreviates: ATCC43599, Table 3, spores, tested concentrations 10 μg/ml-0.003 μg/ml if not indicated otherwise, read-out: MIC spores.
The mark [9] stands for this setting: ATCC43599, Table 4, flora (SIEM) medium, tested concentrations 1.2 μg/ml-0.03 μg/ml if not indicated otherwise, read-out: MIC spores flora.
Setting [10] is: ATCC43599, 22 h, Table 4, SAB model medium, tested concentrations 1.2 μg/ml-0.03 μg/ml if not indicated otherwise, read-out: MIC veg. cells SAB model medium.
[11] abbreviates: ATCC43599, Table 3, vegetative cells, tested concentrations 10 μg/ml-0.003 μg/ml if not indicated otherwise, read-out: MIC Veg. cells.
The mark [12] stands for this setting: ATCC43599, Table 4, flora (SIEM) medium, tested concentrations 1.2 μg/ml-0.03 μg/ml if not indicated otherwise, read-out: MIC veg. cells flora.

Here are results for nine compounds from US10596164B2, “Anti-clostridium compounds” (Nederlandse Organisatie voor …, priority 2014, dated 2020).

Converted amounts (≈) assume the structure as drawn. Read-outs that look alike come from different tables or passages of the source. Some results are limits rather than exact numbers.

Regarding `Cc1ccc(C)c(N2C(=O)c3ccc4c5c(ccc(c35)C2=O)C(=O)NC4=O)c1` [20141155PBmol23], the MIC in assay [1] (setting [5]) was 100 µg/mL (≈ 270 µM); in assay [2] (setting [6]) it was greater than 100 µg/mL; in assay [3] (setting [7]), 0.07 to 0.15 µg/mL (≈ 0.189 to 0.405 µM); in assay [3] (setting [8]), 0.03 to 0.07 µg/mL (≈ 0.081 to 0.189 µM); in assay [3] (setting [9]) it was greater than 1.2 µg/mL; in assay [4] (setting [10]) it was 0.07 to 0.15 µg/mL (≈ 0.189 to 0.405 µM). Further, the MIC lay within 0.07 to 0.15 µg/mL (≈ 0.189 to 0.405 µM) in assay [4] (setting [11]) and 0.3 to 0.6 µg/mL (≈ 0.81 to 1.62 µM) in assay [4] (setting [12]).
In the case of `O=C1NC(=O)c2ccc3c4c(ccc1c24)C(=O)N(CC1CCCO1)C3=O` (centres unmarked) [20141155PBmol30], the minimum inhibitory concentration (MIC) in assay [1] (setting [5]) was greater than 100 µg/mL; in assay [2] (setting [6]), greater than 100 µg/mL; in assay [3] (setting [7]), 0.03 to 0.07 µg/mL (≈ 0.0856 to 0.2 µM); in assay [3] (setting [8]), 0.01 to 0.03 µg/mL (≈ 0.0285 to 0.0856 µM); in assay [3] (setting [9]), 0.3 to 0.6 µg/mL (≈ 0.856 to 1.71 µM); in assay [4] (setting [10]) it was 0.03 to 0.07 µg/mL (≈ 0.0856 to 0.2 µM). For the same compound, the MIC was in the range of 0.03 to 0.07 µg/mL (≈ 0.0856 to 0.2 µM) in assay [4] (setting [11]) and 0.3 to 0.6 µg/mL (≈ 0.856 to 1.71 µM) in assay [4] (setting [12]).
With `O=C1NC(=O)c2ccc3c4c(ccc1c24)C(=O)N(c1ccc(O)cc1)C3=O` [20141155PBmol37], the MIC in assay [1] (setting [5]) is 4 µg/mL (≈ 11.2 µM); in assay [2] (setting [6]) it was 40 µg/mL (≈ 112 µM); in assay [3] (setting [7]) it was 0.07 to 0.15 µg/mL (≈ 0.195 to 0.419 µM); in assay [3] (setting [8]) it was 0.03 to 0.07 µg/mL (≈ 0.0837 to 0.195 µM); in assay [3] (setting [9]), 0.3 to 0.6 µg/mL (≈ 0.837 to 1.67 µM); in assay [4] (setting [10]) it was 0.07 to 0.15 µg/mL (≈ 0.195 to 0.419 µM). Further, the MIC was in the range of 0.07 to 0.15 µg/mL (≈ 0.195 to 0.419 µM) in assay [4] (setting [11]) and 0.6 to 1.2 µg/mL (≈ 1.67 to 3.35 µM) in assay [4] (setting [12]).
In the case of `O=C1NC(=O)c2ccc3c4c(ccc1c24)C(=O)N(CCCCO)C3=O` [20141155PBmol41], the minimal inhibitory concentration (MIC) in assay [1] (setting [5]) was 4 µg/mL (≈ 11.8 µM); in assay [2] (setting [6]), greater than 100 µg/mL; in assay [3] (setting [7]) it was 0.07 to 0.15 µg/mL (≈ 0.207 to 0.443 µM); in assay [3] (setting [8]), 0.03 to 0.07 µg/mL (≈ 0.0887 to 0.207 µM); in assay [3] (setting [9]), 0.15 to 0.3 µg/mL (≈ 0.443 to 0.887 µM); in assay [4] (setting [10]), 0.07 to 0.15 µg/mL (≈ 0.207 to 0.443 µM). Further, the minimal inhibitory concentration (MIC) in assay [4] (setting [11]) is 0.07 to 0.15 µg/mL (≈ 0.207 to 0.443 µM); in assay [4] (setting [12]), 0.15 to 0.3 µg/mL (≈ 0.443 to 0.887 µM).
As for `COc1ccc(OC)c(N2C(=O)c3ccc4c5c(ccc(c35)C2=O)C(=O)NC4=O)c1` [20141155PBmol46], the minimal inhibitory concentration (MIC) in assay [1] (setting [5]) was 4 µg/mL (≈ 9.94 µM); in assay [2] (setting [6]), 10 µg/mL (≈ 24.9 µM); in assay [3] (setting [7]) it was 0.07 to 0.15 µg/mL (≈ 0.174 to 0.373 µM); in assay [3] (setting [8]) it was 0.03 to 0.07 µg/mL (≈ 0.0746 to 0.174 µM); in assay [3] (setting [9]), 0.6 to 1.2 µg/mL (≈ 1.49 to 2.98 µM); in assay [4] (setting [10]) it was 0.07 to 0.15 µg/mL (≈ 0.174 to 0.373 µM). The MIC was 0.07 to 0.15 µg/mL (≈ 0.174 to 0.373 µM) in assay [4] (setting [11]) and 0.6 to 1.2 µg/mL (≈ 1.49 to 2.98 µM) in assay [4] (setting [12]).
For `O=C1NC(=O)c2ccc3c4c(ccc1c24)C(=O)N(CCO)C3=O` [20141155PBmol57], the MIC in assay [1] (setting [5]) is 4 µg/mL (≈ 12.9 µM); in assay [2] (setting [6]), 40 µg/mL (≈ 129 µM); in assay [3] (setting [7]) it was 0.3 to 0.6 µg/mL (≈ 0.967 to 1.93 µM); in assay [3] (setting [8]), 0.15 to 0.3 µg/mL (≈ 0.483 to 0.967 µM); in assay [3] (setting [9]) it was 0.6 to 1.2 µg/mL (≈ 1.93 to 3.87 µM); in assay [4] (setting [10]), 0.3 to 0.6 µg/mL (≈ 0.967 to 1.93 µM). The MIC lay within 0.15 to 0.3 µg/mL (≈ 0.483 to 0.967 µM) in assay [4] (setting [11]) and 0.07 to 0.15 µg/mL (≈ 0.226 to 0.483 µM) in assay [4] (setting [12]).
As for `O=C1c2ccc3c4c(ccc(c24)C(=O)N1CCO)C(=O)N(CCO)C3=O` [A0547/0025269], the MIC is 0.3 to 0.6 µg/mL (≈ 0.847 to 1.69 µM) in assay [3] (setting [7]); 0.3 to 0.6 µg/mL (≈ 0.847 to 1.69 µM) in assay [3] (setting [8]); 0.6 to 1.2 µg/mL (≈ 1.69 to 3.39 µM) in assay [3] (setting [9]); 0.6 to 1.2 µg/mL (≈ 1.69 to 3.39 µM) in assay [4] (setting [10]); 0.3 to 0.6 µg/mL (≈ 0.847 to 1.69 µM) in assay [4] (setting [11]); 0.3 to 0.6 µg/mL (≈ 0.847 to 1.69 µM) in assay [4] (setting [12]).
On to `Cc1ncc([N+](=O)[O-])n1CCO` [Metronadizol, reference compound], for which the MIC in assay [3] (setting [7]), in assay [3] (setting [8]), in assay [3] (setting [9]), in assay [4] (setting [10]), in assay [4] (setting [11]) and in assay [4] (setting [12]) was less than 0.3 µg/mL in each case.
For `CN[C@H](CC(C)C)C(=O)N[C@H]1C(=O)N[C@@H](CC(N)=O)C(=O)N[C@H]2C(=O)N[C@H]3C(=O)N[C@H](C(=O)N[C@H](C(=O)O)c4cc(O)cc(O)c4-c4cc3ccc4O)[C@H](O)c3ccc(c(Cl)c3)Oc3cc2cc(c3O[C@@H]2O[C@H](CO)[C@@H](O)[C@H](O)[C@H]2O[C@H]2C[C@](C)(N)[C@H](O)[C@H](C)O2)Oc2ccc(cc2Cl)[C@H]1O` [Vancomycin, reference compound], the minimum inhibitory concentration (MIC) in assay [1] (ATCC11778, read-out: MIC B. cereus ATCC 11778) was 1 µg/mL (≈ 0.69 µM); in assay [2] (ATCC6538, read-out: MIC S. aureus ATCC 6538), 1 µg/mL (≈ 0.69 µM); in assay [3] (ATCC43599, 22 h, read-out: MIC spores SAB model medium), less than 0.3 µg/mL; in assay [3] (ATCC43599, read-out: MIC spores), less than 0.3 µg/mL; in assay [3] (ATCC43599, read-out: MIC spores flora), less than 0.3 µg/mL; in assay [4] (ATCC43599, 22 h, read-out: MIC veg. cells SAB model medium) it was less than 0.3 µg/mL. Moreover, the minimum inhibitory concentration (MIC) was less than 0.3 µg/mL in assay [4] (ATCC43599, read-out: MIC Veg. cells) and less than 0.3 µg/mL in assay [4] (ATCC43599, read-out: MIC veg. cells flora).
